Key:
HRas^G12V [1] = target: T1, HRas^G12V (Homo sapiens (Human), UniProt P01112, G12V); assay: 19F T2-CPMG NMR score; type: binding
Procedure, shortened: (§1)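 In the T2-CPMG experiment, echo spacing was 1 ms and total delays ranged over eight values from 1 to 800 ms. Both scores come from 600 MHz NMR of 50 μM HRas G12V mixed with fragment pools at 240 μM each, in phosphate buffer pH 7.4 with NaCl, MgCl2 and TCEP-d16. Ligand-observed 19F spectra were recorded with 1H decoupling, 64 scans and a 5 s relaxation delay.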

HRas^G12V [2] = target: T1, HRas^G12V; assay: Overall binding/activity in the various assays (NMR consensus binding)
Protocol: Since the fragment library was curated using phosphate buffer, 25 mM sodium phosphate pH 7.4, 150 mM NaCl, 5 mM MgCl2, 1 mM TCEP-d16, 10% D2O Fresh TCEP was used for experiments. Screening was performed using ^1H-decoupled 1D ^19F experiment Bruker experiment (zgfhigqn.2) with 64 scans and a relaxation delay of 5 seconds. 50 μM HRas^G12V and 240 μM of each fragment in pools (mixtures) were used.
Hit confirmation was performed using the same ^19F experiment as the screen. Ligand-observed 1D ^1H, protein-observed 1D ^1H, ^1H T2-CPMG as well as Saturation Transfer Difference (STD) experiments were also run on the same samples. Ligand-observed 1D ^1H was run using the standard Bruker sequence with excitation sculpting (zgesgp) with a relaxation delay of 10 seconds and 16 scans per spectrum. Protein-observed 1D ^1H was performed using the same sequence with a relaxation delay of 1 second and 256 scans in order to increase the signal-to-noise of the protein resonances, while keeping the experimental time relatively short. The ^1H T2-CPMG experiment employed a modified version of the Bruker 1D ^1H zgesgp experiment with the addition of a CPMG pulse train after the first 90° excitation pulse. Total duration for each spin echo was fixed at 1 ms (τ=500 μs), while the number of echoes in the pulse train was varied according to the total time (T). The number of scans for each spectrum was 4 and eight delay times were run on each sample, ranging from 1 ms to 800 ms.
STD experiments consisted of two independent spectra with offsets of 0 ppm (on resonance) and −20 ppm (off resonance). […] 160 scans were acquired for each spectrum.
The results obtained with the compounds in the various assays described above are depicted in Table 21.
Because of its power to probe the intrinsically weak interactions (Kd) between targets and low-molecular weight fragments, NMR fragment-based lead discovery (FBLD) is a very useful biophysical method in early stage drug discovery, especially for challenging target proteins; including those with shallow binding pockets. Since FBLD screens are performed using low-molecular weight compounds (fragments) with lower structural complexity, the same chemical space can be covered using a smaller number of drug-like fragments versus use of large libraries of higher-molecular weight lead-like compounds as in high throughput screening (HTS) campaigns. Therefore, FBLD has a much higher hit rate than HTS using only several hundred to several thousand compounds in comparison with approximately 1 million compounds for HTS. Also, the small size of the compounds screened in FBLD means a better chance to fully match the interactions with small or transient pockets within the target protein, where these less tractable pockets cannot be accessed with standard classical HTS methods. […] We expect this methodology to be more advantageous than classical HTS methods for expediting the time from hit to lead (H2L) and allows for rapid access to high quality leads with lower attrition rates in subsequent lead optimization (LO) campaigns toward pre-clinical candidate selection. FBLD screening by NMR involves a “consensus binding” approach where several distinct NMR experiments (DLB, STD, CPMG) are applied along with a free-state aggregation detection method (T2-CPMG) to rank the compounds for their affinity to the receptor (HRAS in this case) whilst simultaneously monitoring the solution behavior and critical quality attributes of each compound. The latter helps to eliminate artifact binders which are highly problematic. We performed a fluorine screen involving 461 compounds that were derived from a highly curated fragment library. Moreover, two-dimensional ^15N HSQC NMR was also used to validate ligand-binding sites on the target protein. In addition, we employed protein-detected biophysical measurements were employed to determine fragment binding affinities to the target protein (Kd) by HSQC NMR. […]

HRas^G12V [3] = target: T1, HRas^G12V; assay: 19F DLB (ligand-observed 19F NMR) score; type: binding; parameters: scale not given here
Procedure, shortened: as §1

SMILES | 19F T2-CPMG Score (HRas^G12V [1]) | Binding to HRas^G12V (in words) (HRas^G12V [2]) | 19F DLB Score (HRas^G12V [3]) | Activity ranking on HRas^G12V (in words) (HRas^G12V [2])
O=C(O)C[C@H]1CN(C(=O)Cc2c[nH]c3cc(F)ccc23)CCO1 [Compound 10178, (S)-2-(4-(2-(6-fluoro-1H-indol-3-yl)acetyl)morpholin-2-yl)acetic acid] | 2.74 | low or no binding | 1.11 | –
CCOC(=O)C(CC(C)C)NC(=O)Cc1c[nH]c2cc(F)ccc12 (stereo not drawn) [Compound 10093] | 4.89 | low or no binding | 1.35 | –
CN1CCN(C(=O)Cc2c[nH]c3cc(F)ccc23)[C@@H](C(=O)O)C1 [Compound 10165, (R)-1-(2-(6-fluoro-1H-indol-3-yl)acetyl)-4-methylpiperazine-2-carboxylic acid] | 5.28 | low or no binding | 1.58 | –
CC(=O)N1CC[C@H](NC(=O)Cc2c[nH]c3cc(F)ccc23)C1 [compound 10090] | 6.28 | low or no binding | 1.51 | –
COC(=O)Cc1c[nH]c2cc(F)ccc12 [Compound 11001] | 6.77 | low or no binding | 1.76 | –
CN1CCC[C@@H]1C(=O)NCCc1c[nH]c2cc(F)ccc12 [Compound 10028] | 1.61 | low or no binding | 1.01 | –
COC(=O)[C@H]1CN(C(=O)Cc2c[nH]c3cc(F)ccc23)CCN1C [Compound 10156, Methyl (R)-4-(2-(6-fluoro-1H-indol-3-yl)acetyl)-1-methylpiperazine-2-carboxylate] | 3.43 | low or no binding | 1.42 | –
O=C(O)C[C@@H]1CN(C(=O)Cc2c[nH]c3cc(F)ccc23)CCO1 [Compound 10175] | 2.15 | low or no binding | 1.19 | –
CC(=O)N1CCC[C@@H](NC(=O)Cc2c[nH]c3cc(F)ccc23)C1 [Compound 10074] | 3.48 | low or no binding | 1.23 | –
CN1CCN(C(=O)Cc2c[nH]c3cc(F)ccc23)C[C@@H]1C(=O)O [Compound 10173] | 3.79 | low or no binding | 1.33 | –
O=C(NCCc1c[nH]c2cc(F)ccc12)[C@@H]1CCCO1 [Compound 10023, (S)—N-(2-(6-fluoro-1H-indol-3-yl)ethyl) tetrahydrofuran-2-carboxamide] | 6.9 | low or no binding | 1.53 | –
CCOC(=O)[C@@H](C)NC(=O)Cc1c[nH]c2cc(F)ccc12 [Compound 10037] | 4.07 | low or no binding | 1.25 | –
COC[C@@H]1CN(C(=O)Cc2c[nH]c3cc(F)ccc23)CCO1 [compound 10155] | 8.16 | low or no binding | 1.49 | –
CCOC(=O)C[C@@H]1CN(C(=O)Cc2c[nH]c3cc(F)ccc23)CCO1 [Compound 10171] | 7.62 | low or no binding | 1.19 | –
CCOC(=O)C(C#N)c1c[nH]c2cc(F)ccc12 (stereo not drawn) [Compound 11016] | 5.57 | low or no binding | 1.74 | –
CN1CCN(C(=O)Cc2c[nH]c3cc(F)ccc23)C[C@@H]1C(=O)O [Compound 10166, (R)-4-(2-(6-fluoro-1H-indol-3-yl)acetyl)-1-methylpiperazine-2-carboxylic Acid] | 7.19 | low or no binding | 1.55 | –
CC1CN(C(=O)Cc2cc3cc[nH]c3cc2F)C1 [Compound 10176, 2-(6-fluoro-1H-indol-5-yl)-1-(3-methylazetidin-1-yl) ethan-1-one] | 0.19 | low or no binding | 1.01 | –
CN(C)CC(=O)Nc1cccc(NC(=O)Cc2c[nH]c3cc(Cl)cc(F)c23)c1 [Compound 11072] | 1.02 | low or no binding | 0.08 | –
C[C@H](NC(=O)Cc1c[nH]c2cc(F)ccc12)C(=O)O [Compound 10084] | 1.7 | low or no binding | 1.09 | –
Fc1ccc2c(CCNCCc3c[nH]c4cc(F)ccc34)c[nH]c2c1 [Compound 10047, Bis(2-(6-fluoro-1H-indol-3-yl)ethyl)amine] | 3.38 | low or no binding | 1.19 | –
CC(=O)N1CC[C@@H](NC(=O)Cc2c[nH]c3cc(F)ccc23)C1 [Compound 10092, (R)—N-(1-acetylpyrrolidin-3-yl)-2-(6-fluoro-1H-indol-3-yl) acetamide] | 7.82 | low or no binding | 1.46 | –
CC(C)(C)OC(=O)n1cc(CC#N)c2ccc(F)cc21 [Compound 11013] | 1.74 | low or no binding | 0.4 | –
COCC(=O)Nc1cccc(NC(=O)Cc2c[nH]c3cc(F)ccc23)c1 [Compound 10080, 2-(6-fluoro-1H-indol-3-yl)-N-(3-(2-methoxyacetamido)phenyl)acetamide] | −1.66 | low or no binding | 2.67 | –
O=C(Cc1c[nH]c2cc(F)ccc12)N1CCN(C(=O)C2CCCO2)CC1 (stereo not drawn) [Compound 10170, 2-(6-fluoro-1H-indol-3-yl)-1-(4-(tetrahydrofuran-2-carbonyl)piperazin-1-yl)ethan-1-one] | 6.11 | low or no binding | 1.52 | –
CC1CN(C(=O)Cc2c[nH]c3cc(F)cnc23)C1 [Compound 10174, 2-(6-fluoro-1H-pyrrolo[3,2-b]pyridin-3-yl)-1-(3-methylazetidin-1-yl) ethan-1-one] | 2.32 | low or no binding | 1.14 | –
O=C(O)[C@@H]1CCCCN1C(=O)Cc1c[nH]c2cc(F)ccc12 [Compound 10123] | 2.37 | low or no binding | 1.5 | –
O=C(Cc1c[nH]c2cc(F)ccc12)N[C@@H]1CCOC1 [Compound 10071] | 4.49 | low or no binding | 1.35 | –
O=C(CN1CCCCC1)c1c[nH]c2cc(F)ccc12 [compound 10076] | 37.86 | – | 3.34 | More active
CN1CCC[C@H]1C(=O)NCCc1c[nH]c2cc(F)ccc12 [Compound 10036] | 2.32 | low or no binding | 1.22 | –
CN(C)Cc1c[nH]c2ccc(F)cc12 [FS-1254, reference compound] | 0.74 | low or no binding | 1.15 | –
